Data published in patent US8759013B2, “Dual-target biosensor cell assays” (Corning Incorporated, priority 2008, dated 2014).
Entries after “also recorded” stand apart in the source; their conditions may differ.

Legend:
[1] = target: T1, protease activated receptor subtype 1, PAR1 (Homo sapiens, UniProt P25116); assay: RWG biosensor DMR assay, SFLLR-amide stimulation of A431 cells; type: cell-based; settings: 1 micromolar
T1 construct: A431 cells endogenously express both PAR1 and β2AR; endogenous in cells; host or cells: A431 (human epidermoid carcinoma)
T1 sequence (P25116 22-425): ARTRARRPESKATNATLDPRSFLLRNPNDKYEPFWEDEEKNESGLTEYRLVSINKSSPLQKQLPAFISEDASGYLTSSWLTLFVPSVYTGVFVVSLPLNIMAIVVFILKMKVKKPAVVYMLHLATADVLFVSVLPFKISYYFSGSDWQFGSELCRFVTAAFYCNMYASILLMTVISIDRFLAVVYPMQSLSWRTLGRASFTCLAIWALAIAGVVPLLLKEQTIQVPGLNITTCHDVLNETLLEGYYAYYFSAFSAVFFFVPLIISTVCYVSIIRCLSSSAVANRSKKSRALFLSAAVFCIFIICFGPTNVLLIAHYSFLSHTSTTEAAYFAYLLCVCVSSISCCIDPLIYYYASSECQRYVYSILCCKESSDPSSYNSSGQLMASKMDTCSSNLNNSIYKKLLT
Excerpt: (§1) Corning® Epic® wavelength interrogation system was used.
It is widely believed that GPCR signaling proceeds through a series of highly regulated spatial and temporal events besides the production and regulations of second messengers such as Ca^2+ and cAMP. […] The label-free optical biosensors enable the measurement of an integrated cellular response relating to ligand-induced dynamic mass redistribution in cells within the detection zone of the biosensor, offering a novel readout for receptor biology and ligand pharmacology.
FIG. 2 provide examples of RWG biosensor-based cell assays against two classes of G protein-coupled receptors. […] A431 cells endogenously express both PAR1 and β2AR. […] This is consistent with the known signaling pathways mediated through each receptor individually, i.e., PAR1 activation leads to a Gq pathway, while β2AR activation leads to a Gs pathway. […] In FIGS. 2b, 2c and 2d, the error bar at each time point was also included. One possible explanation is that distinct classes of GPCRs can mediate signaling through distinct routes (e.g., “channeling” or “tunneling”), and the cells can respond synergistically to co-stimulation with two agonists targeting two different receptors.

[2] = target: T2, histamine receptor subtype 1 (H1R) (Homo sapiens, UniProt P35367)
Excerpt: as §1
To test this possibility, a desensitization assay was used.

[3] = target: T2, histamine receptor subtype 1 (H1R); settings: quiescent A431 cells
[4] = target: T3, β2-adrenergic receptor (β2AR) (Homo sapiens, UniProt P07550); settings: co-stimulation with 2 nM epinephrine and 1 μM histamine; high doses
[5] = target: T2, histamine receptor subtype 1 (H1R); assay: Dual receptor-specific antagonist screening (LOPAC), histamine response; type: cell-based; set-up: endogenous in cells; host or cells: A431 (human epidermoid carcinoma), quiescent after serum starvation
[6] = system: endogenous receptors in A431 cells; assay: LOPAC library agonist screening with biosensor cellular assay (DMR); type: cell-based, human; settings: A431 cells; compound at 1 microM; real time kinetic
Protocol: as §1
Furthermore, a ligand-induced DMR is a real time kinetic response containing many useful parameters (e.g., phases, amplitudes and kinetics) for analyzing ligand pharmacology. The LOPAC library was used to screen agonists for endogenous receptors in A431 cells using real time kinetic measurements.
First, the response in terms of wavelength shift between before and 2 min after stimulation was calculated.
Second, the responses in terms of wavelength shift between before and 50 min after stimulation were calculated.
Third, the responses in terms of wavelength shift between 2 min and 50 min after stimulation were calculated. The difference in resonant wavelength between the two time points was plotted as a function of compounds (FIG. 8).

[7] = target: T3, β2-adrenergic receptor (β2AR); assay: Dual receptor-specific antagonist screening (LOPAC), epinephrine response; type: cell-based; set-up: A431 cells endogenously express both PAR1 and β2AR; endogenous in cells; host or cells: A431 (human epidermoid carcinoma), quiescent after serum starvation; settings: compound 1 microM for one hour, then cocktail of epinephrine and histamine

T2 sequence (P35367 whole entry): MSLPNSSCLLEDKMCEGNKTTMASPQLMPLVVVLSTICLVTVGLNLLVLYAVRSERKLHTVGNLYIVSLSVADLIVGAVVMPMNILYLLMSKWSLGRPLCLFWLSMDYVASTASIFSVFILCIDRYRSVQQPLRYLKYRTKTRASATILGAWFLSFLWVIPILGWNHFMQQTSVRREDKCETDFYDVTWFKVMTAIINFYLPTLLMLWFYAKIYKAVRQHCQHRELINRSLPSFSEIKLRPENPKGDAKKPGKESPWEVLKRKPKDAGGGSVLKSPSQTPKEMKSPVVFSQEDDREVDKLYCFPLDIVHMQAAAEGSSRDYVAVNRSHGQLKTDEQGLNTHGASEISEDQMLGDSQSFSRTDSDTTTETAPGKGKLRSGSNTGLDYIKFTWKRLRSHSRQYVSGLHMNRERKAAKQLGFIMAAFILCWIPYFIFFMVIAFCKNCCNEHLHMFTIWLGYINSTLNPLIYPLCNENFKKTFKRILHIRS
T3 sequence (P07550 whole entry): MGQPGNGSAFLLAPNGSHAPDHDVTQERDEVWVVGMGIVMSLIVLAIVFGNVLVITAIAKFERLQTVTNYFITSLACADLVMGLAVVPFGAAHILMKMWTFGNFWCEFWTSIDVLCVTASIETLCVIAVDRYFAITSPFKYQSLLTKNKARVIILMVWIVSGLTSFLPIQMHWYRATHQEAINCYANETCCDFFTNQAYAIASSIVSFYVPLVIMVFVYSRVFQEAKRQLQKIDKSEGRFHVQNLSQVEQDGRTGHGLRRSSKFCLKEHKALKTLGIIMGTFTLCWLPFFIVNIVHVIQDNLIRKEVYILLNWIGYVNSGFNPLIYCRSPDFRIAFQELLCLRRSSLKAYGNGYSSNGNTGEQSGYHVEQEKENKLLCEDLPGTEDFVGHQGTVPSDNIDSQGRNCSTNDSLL

| Compound | type of DMR signal induced [1] | Hill slope for inhibition of the histamine response [2] | effect of pretreatment on the histamine response [2] | type of DMR (optical) signal induced [3] | Hill coefficient of the histamine saturation curve ([3]; n=6) | effect of pretreatment on the epinephrine response [4] | effect on the histamine response in the co-stimulation [5] | ligand-induced DMR signal in agonist screening [6] | effect on the epinephrine response in the co-stimulation [7] |
| --- | --- | --- | --- | --- | --- | --- | --- | --- | --- |
| SFLLR-amide | Gq-type DMR signal | – | – | – | – | – | – | – | – |
| NCCc1c[nH]cn1 [histamine] | – | 1.4 | completely inhibited | dose-dependent and saturable Gq-type optical signal | 1.87 | slightly attenuated | complete desensitization | biphasic Gq-type DMR signal; also recorded: Gq-like DMR signal | but not to epinephrine |
